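Method: 48-hour compound exposure of cells in 96-well plates, five concentrations, linear interpolation of endpoints. GI50: concentration for 50% inhibition of growth.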 The source made the active and inactive calls. Cut-off read from the data, not from the text of the source: active = GI50 up to about 1.1 µM and inactive = higher.
Columns and labels:
Assay in all cases: growth of human tumour cells (NCI), 48 h
M14 = tested on: M14
HCT-116 = tested on: HCT-116
UO-31 = tested on: UO-31
COLO 205 = tested on: COLO 205
HOP-62 = tested on: HOP-62
SR = tested on: SR
CAKI-1 = tested on: CAKI-1
HCT-15 = tested on: HCT-15
UACC-257 = tested on: UACC-257
U-251 = tested on: U-251
LOX IMVI = tested on: LOX IMVI
SNB-75 = tested on: SNB-75
LXFL 529 = tested on: LXFL 529
A549 = tested on: A549
SK-OV-3 = tested on: SK-OV-3
EKVX = tested on: EKVX
MDA-N = tested on: MDA-N
T47D = tested on: T47D
BT-549 = tested on: BT-549

Structure (SMILES) | GI50 (M14) | GI50 (HCT-116) | GI50 (UO-31) | GI50 (COLO 205) | GI50 (HOP-62) | GI50 (SR) | GI50 (CAKI-1) | GI50 (HCT-15) [µM] | GI50 (UACC-257) | GI50 (U-251) | GI50 (LOX IMVI) | GI50 (SNB-75) | GI50 (LXFL 529) | GI50 (A549) | GI50 (SK-OV-3) | GI50 (EKVX) | GI50 (MDA-N) | GI50 (T47D) | GI50 (BT-549)
CC(=O)NNc1nc(C)c(C(/C=C/c2ccc(Cl)cc2)=N\N=C(N)N)s1 | 82.6 µM (inactive) | > 100 µM (inactive) | > 100 µM (inactive) | > 100 µM (inactive) | > 100 µM (inactive) | > 100 µM (inactive) | > 100 µM (inactive) | > 100 | > 100 µM (inactive) | > 100 µM (inactive) | > 100 µM (inactive) | > 100 µM (inactive) | > 100 µM (inactive) | > 100 µM (inactive) | > 100 µM (inactive) | – | – | – | –
O=S(=O)(/C=C/c1ccc(Cl)cc1Cl)Cc1ccccc1CS(=O)(=O)/C=C/c1ccc(Cl)cc1Cl | > 100 µM (inactive) | 9.59 µM (inactive) | > 100 µM (inactive) | > 100 µM (inactive) | > 100 µM (inactive) | > 100 µM (inactive) | > 100 µM (inactive) | 46.2 | 52.8 µM (inactive) | > 100 µM (inactive) | > 100 µM (inactive) | 6.18 µM (inactive) | 43.1 µM (inactive) | 18 µM (inactive) | > 100 µM (inactive) | > 100 µM (inactive) | – | – | –
CC1CC(C)CC(C)C(O)/C(C#N)=C/C=C/CC(C2CCCC2C(=O)O)OC(=O)CC(O)C(C)C1 (configuration not stated) | < 0.0121 µM (active) | 0.0223 µM (active) | 0.012 µM (active) | 0.0225 µM (active) | 0.0148 µM (active) | < 0.0116 µM (active) | < 0.01 µM (active) | 0.0131 | 0.0154 µM (active) | 0.0115 µM (active) | < 0.0109 µM (active) | 0.0175 µM (active) | < 0.01 µM (active) | 0.053 µM (active) | 0.0161 µM (active) | 0.064 µM (active) | < 0.0112 µM (active) | < 0.01 µM (active) | 0.0143 µM (active)
CCOC(=O)C12CCCC1(O)N(NC(=O)c1cccc(Cl)c1)C(C)=C2C(=O)OC (configuration not stated) | > 100 µM (inactive) | > 100 µM (inactive) | > 100 µM (inactive) | – | > 100 µM (inactive) | 53 µM (inactive) | > 100 µM (inactive) | > 100 | 69.5 µM (inactive) | > 100 µM (inactive) | > 100 µM (inactive) | 34.5 µM (inactive) | > 100 µM (inactive) | > 100 µM (inactive) | > 100 µM (inactive) | 56.6 µM (inactive) | – | – | –
Cc1c(C(=O)CC(=O)C(=O)Nc2cc(Cl)ccc2Cl)[n+]([O-])c2ccccc2[n+]1[O-] | 25.3 µM (inactive) | 35.4 µM (inactive) | > 100 µM (inactive) | 31.4 µM (inactive) | > 100 µM (inactive) | 28.4 µM (inactive) | > 100 µM (inactive) | 29 | 34.8 µM (inactive) | 34.8 µM (inactive) | 27.4 µM (inactive) | 33.6 µM (inactive) | 45.6 µM (inactive) | 40.1 µM (inactive) | > 100 µM (inactive) | 37.8 µM (inactive) | – | – | –
Nc1c(S(=O)(=O)c2ccccc2)c2nc3ccccc3nc2n2c1nc1ccccc12 | 16.2 µM (inactive) | 56.2 µM (inactive) | > 100 µM (inactive) | > 100 µM (inactive) | 19.4 µM (inactive) | > 71.6 µM (inactive) | > 54.1 µM (inactive) | 36.1 | > 51.5 µM (inactive) | 24.7 µM (inactive) | > 60.8 µM (inactive) | 7.83 µM (inactive) | > 52 µM (inactive) | > 51.5 µM (inactive) | > 100 µM (inactive) | > 68.5 µM (inactive) | – | – | –

From ChEMBL document CHEMBL1201862, “PubChem BioAssay data set” (2004)
